Test results: PubChem BioAssay (NCI)
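GI50 marks 50% less growth. The concentration for full growth arrest is given as TGI.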

Assays:
Assay in all cases: NCI tumour cell line growth inhibition, 384-well format
[1] = system: 786-0 renal
[2] = system: A498 renal
[3] = system: A549 NSCLC
[4] = system: ACHN renal
[5] = system: BT-549 breast
[6] = system: CAKI-1 renal
[7] = system: CCRF-CEM leukemia
[8] = system: COLO 205 colon
[9] = system: DU-145 prostate
[10] = system: EKVX NSCLC
[11] = system: HCC-2998 colon
[12] = system: HCT-116 colon
[13] = system: HCT-15 colon
[14] = system: HL-60(TB) leukemia
[15] = system: HOP-62 NSCLC
[16] = system: HOP-92 NSCLC
[17] = system: HS 578T breast
[18] = system: HT29 colon
[19] = system: IGROV1 ovarian
[20] = system: K-562 leukemia
[21] = system: KM12 colon
[22] = system: LOX IMVI melanoma
[23] = system: M14 melanoma
[24] = system: MALME-3M melanoma
[25] = system: MCF7 breast
[26] = system: MDA-MB-231 breast
[27] = system: MDA-MB-435 melanoma
[28] = system: MDA-MB-468 breast
[29] = system: MOLT-4 leukemia
[30] = system: NCI-H226 lung
[31] = system: NCI-H23 lung
[32] = system: NCI-H322M lung
[33] = system: NCI-H460 NSCLC
[34] = system: NCI-H522 lung
[35] = system: NCI/ADR-RES ovarian
[36] = system: OVCAR-3 ovarian
[37] = system: OVCAR-4 ovarian
[38] = system: OVCAR-5 ovarian
[39] = system: PC-3 prostate
[40] = system: RPMI-8226 leukemia
[41] = system: RXF 393 renal
[42] = system: SF-268 CNS
[43] = system: SF-295 CNS
[44] = system: SF-539 CNS
[45] = system: SK-MEL-2 melanoma
[46] = system: SK-MEL-28 melanoma
[47] = system: SK-MEL-5 melanoma
[48] = system: SK-OV-3 ovarian
[49] = system: SN12C renal
[50] = system: SNB-19 CNS
[51] = system: SNB-75 CNS
[52] = system: SR leukemia
[53] = system: SW-620 colon
[54] = system: T-47D breast
[55] = system: TK-10 renal
[56] = system: U251 glioblastoma
[57] = system: UACC-257 melanoma
[58] = system: UACC-62 melanoma
[59] = system: UO-31 renal

Question: What does the source list for NC(=O)Nc1cc(-c2cccc(F)c2)sc1C(=O)N[C@H]1CCCNC1?
Answer: GI50 [1]: 0.179 µM; TGI [1]: 1.05 µM; GI50 [2]: 0.0323 µM; TGI [2]: 0.144 µM; GI50 [3]: 0.315 µM; TGI [3]: 1.57 µM; GI50 [4]: 0.0497 µM; TGI [4]: 0.295 µM; GI50 [5]: 0.0166 µM; TGI [5]: 0.105 µM; GI50 [6]: 0.294 µM; TGI [6]: 1.5 µM; GI50 [7]: 0.0404 µM; TGI [7]: 0.192 µM; GI50 [8]: 0.261 µM; TGI [8]: 1.08 µM; GI50 [9]: 0.29 µM; TGI [9]: 1.34 µM; GI50 [10]: 0.389 µM; TGI [10]: 2.15 µM; GI50 [11]: 0.0106 µM; TGI [11]: 0.149 µM; GI50 [12]: 1 µM; TGI [12]: 2.67 µM; GI50 [13]: 1.28 µM; TGI [13]: 2.89 µM; GI50 [14]: 0.12 µM; TGI [14]: 0.245 µM; GI50 [15]: 0.146 µM; TGI [15]: 0.565 µM; GI50 [16]: 0.0381 µM; TGI [16]: 0.407 µM; GI50 [17]: 0.0132 µM; TGI [17]: 0.284 µM; GI50 [18]: 0.221 µM; TGI [18]: 0.7 µM; GI50 [19]: 0.0796 µM; TGI [19]: 0.887 µM; GI50 [20]: 0.103 µM; TGI [20]: 0.237 µM; GI50 [21]: 0.022 µM; TGI [21]: 0.228 µM; GI50 [22]: 0.359 µM; TGI [22]: 1.24 µM; GI50 [23]: 0.0451 µM; TGI [23]: 0.224 µM; GI50 [24]: 0.185 µM; TGI [24]: 1.74 µM; GI50 [25]: 0.0533 µM; TGI [25]: 12.2 µM; GI50 [26]: 0.3 µM; TGI [26]: 1.57 µM; GI50 [27]: 0.143 µM; TGI [27]: 0.302 µM; GI50 [28]: 0.202 µM; TGI [28]: 0.698 µM; GI50 [29]: 0.0406 µM; TGI [29]: 0.189 µM; GI50 [30]: 0.508 µM; TGI [30]: 2.3 µM; GI50 [31]: 0.0665 µM; TGI [31]: 0.267 µM; GI50 [32]: 0.161 µM; TGI [32]: 0.967 µM; GI50 [33]: 0.284 µM; TGI [33]: 2.06 µM; GI50 [34]: 0.128 µM; TGI [34]: 0.589 µM; GI50 [35]: 9.19 µM; TGI [35]: 23 µM; GI50 [36]: 0.103 µM; TGI [36]: 0.539 µM; GI50 [37]: 0.0696 µM; TGI [37]: 0.348 µM; GI50 [38]: 0.289 µM; TGI [38]: 1.62 µM; GI50 [39]: 0.259 µM; TGI [39]: 3.96 µM; GI50 [40]: 0.0349 µM; TGI [40]: 0.186 µM; GI50 [41]: 0.0121 µM; TGI [41]: 0.0432 µM; GI50 [42]: 0.132 µM; TGI [42]: 0.91 µM; GI50 [43]: 0.142 µM; TGI [43]: 0.461 µM; GI50 [44]: 0.0228 µM; TGI [44]: 0.104 µM; GI50 [45]: 0.108 µM; TGI [45]: 0.284 µM; GI50 [46]: 1.5 µM; TGI [46]: 8.6 µM; GI50 [47]: 0.127 µM; TGI [47]: 0.408 µM; GI50 [48]: 0.136 µM; TGI [48]: 0.38 µM; GI50 [49]: 0.13 µM; TGI [49]: 0.968 µM; GI50 [50]: 0.377 µM; TGI [50]: 2.29 µM; GI50 [51]: 0.188 µM; TGI [51]: 1.26 µM; GI50 [52]: 0.0365 µM; TGI [52]: 0.154 µM; GI50 [53]: 0.595 µM; TGI [53]: 2.12 µM; GI50 [54]: 12.7 µM; TGI [54]: 25.4 µM; GI50 [55]: 0.109 µM; TGI [55]: 0.357 µM; GI50 [56]: 0.385 µM; TGI [56]: 2.88 µM; GI50 [57]: 1.97 µM; TGI [57]: 11.1 µM; GI50 [58]: 0.319 µM; TGI [58]: 3.33 µM; GI50 [59]: 0.362 µM; TGI [59]: 1.51 µM
